What was measured:
[1] = biological target: T1, serpentine synthase (SS, CrSS) (Catharanthus roseus, UniProt A0A8F5R546); test: LC-MS of product alstonine, yeast cultures expressing CrSS and yeast microsomes; type: biochemical; conditions: 30 uM substrate; microsomes: 150 uM NADPH, HEPES-NaOH pH 7.5, 30 C, 60 min; AaCPR co-expressed
T1 construct: predicted TM helix aa 7-24 FWSLPAIALLQVFLFFLF; 6HIS version (in planta) about 59 kDa
T1 sequence (A0A8F5R546 1-511): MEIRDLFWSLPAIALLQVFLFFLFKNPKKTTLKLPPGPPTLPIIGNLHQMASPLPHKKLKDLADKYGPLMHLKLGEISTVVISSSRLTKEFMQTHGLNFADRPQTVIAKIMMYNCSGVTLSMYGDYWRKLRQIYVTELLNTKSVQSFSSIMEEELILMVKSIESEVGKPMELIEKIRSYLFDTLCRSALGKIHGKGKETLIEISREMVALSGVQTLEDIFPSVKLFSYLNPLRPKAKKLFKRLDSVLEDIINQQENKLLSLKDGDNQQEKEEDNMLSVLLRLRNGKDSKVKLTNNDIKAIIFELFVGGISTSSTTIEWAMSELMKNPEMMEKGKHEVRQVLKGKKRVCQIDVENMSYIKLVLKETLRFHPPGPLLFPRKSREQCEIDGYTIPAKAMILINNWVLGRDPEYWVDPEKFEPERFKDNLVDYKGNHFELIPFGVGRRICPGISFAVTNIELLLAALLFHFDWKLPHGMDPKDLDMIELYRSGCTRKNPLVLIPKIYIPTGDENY

[2] = biological target: T1, serpentine synthase (SS, CrSS); test: LC-MS of product serpentine, yeast cultures expressing CrSS and yeast microsomes; type: biochemical; conditions: 30 uM substrate; microsomes: 150 uM NADPH, HEPES-NaOH pH 7.5, 30 C, 60 min; AaCPR co-expressed

SMILES | LC-MS of product alstonine, yeast cultures expressing CrSS and yeast microsomes [1] | LC-MS of product serpentine, yeast cultures expressing CrSS and yeast microsomes [2]
COC(=O)C1=CO[C@@H](C)[C@@H]2CN3CCc4c([nH]c5ccccc45)[C@@H]3C[C@H]12 [THA] | this cytochrome P450 could also produce alstonine from THA | –
COC(=O)C1=CO[C@@H](C)[C@H]2CN3CCc4c([nH]c5ccccc45)[C@@H]3C[C@H]12 [ajmalicine] | – | CrSS produced serpentine from ajmalicine when incubated in the media of yeast cultures expressing CrSS

Reference: PMC8491018, “Improved virus-induced gene silencing allows discovery of a serpentine synthase gene in Catharanthus roseus” (Plant Physiology, 2021)
